The values below come from PMC8396041, “A Michael Acceptor Analogue, SKSI-0412, Down-Regulates Inflammation and Proliferation Factors through Suppressing Signal Transducer and Activator of Transcription 3 Signaling in IL-17A-Induced Human Keratinocyte” (International Journal of Molecular Sciences, 2021).

In the assay the target is T1, STAT3 (Homo sapiens, UniProt P40763).
T1 construct: Recombinant human STAT3 protein (Abnova, cat no. H00006774-P01)
In words: intrinsic fluorescence quenching titration (ex […] nm, em […] nm). Format: binding.

Usually Kd stands for the concentration at which binding is half-saturated. A high value points to lower affinity.

T1 sequence (P40763 2-770): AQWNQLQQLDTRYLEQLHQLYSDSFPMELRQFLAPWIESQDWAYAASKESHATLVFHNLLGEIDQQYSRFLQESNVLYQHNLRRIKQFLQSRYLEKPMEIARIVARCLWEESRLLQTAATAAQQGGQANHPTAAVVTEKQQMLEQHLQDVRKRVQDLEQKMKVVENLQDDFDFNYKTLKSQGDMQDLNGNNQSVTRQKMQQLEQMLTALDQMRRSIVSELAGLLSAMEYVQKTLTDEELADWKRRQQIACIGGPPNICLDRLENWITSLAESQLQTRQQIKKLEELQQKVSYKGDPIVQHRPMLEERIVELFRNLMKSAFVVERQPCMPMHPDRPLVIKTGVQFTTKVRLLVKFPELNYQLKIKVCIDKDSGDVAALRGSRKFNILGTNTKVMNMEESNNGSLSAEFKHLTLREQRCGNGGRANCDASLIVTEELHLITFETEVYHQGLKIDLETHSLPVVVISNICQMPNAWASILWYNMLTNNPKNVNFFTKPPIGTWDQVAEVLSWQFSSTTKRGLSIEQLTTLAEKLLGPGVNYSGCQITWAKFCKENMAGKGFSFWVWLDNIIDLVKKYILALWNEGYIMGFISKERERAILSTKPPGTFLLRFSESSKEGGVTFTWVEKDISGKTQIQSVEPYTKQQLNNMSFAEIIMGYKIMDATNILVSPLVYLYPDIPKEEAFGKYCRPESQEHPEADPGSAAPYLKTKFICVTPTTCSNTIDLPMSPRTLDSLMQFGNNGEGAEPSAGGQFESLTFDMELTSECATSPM

As to `C=C(C(=O)c1ccc2c(c1)C=CC(C)(C)O2)c1ccc(OC)c(OC)c1` [compound 4, 2-(3,4-Dimethoxyphenyl)-1-(2,2-Dimethyl-2H-Chromen-6-yl)Prop-2-en-1-One], binding was put at a Kd of 26.8 µM. This counts as double-digit micromolar.
